Data set [1] is described as follows: pKa of ionizable fluorophores (pH sensitivity screening). Type of data set: physicochemical. To be noted: aqueous solutions with 10% DMSO. As to the method: (§1) Probes 1-13 were screened for pH and solvent sensitivity. Solvent sensitivity or dependence is at least partially attributable to differences in the equilibria between tautomeric forms of the compounds in the various solvents evaluated. The fluorophore concentrations ranged from 10-15 μM. Aqueous solutions contained 10% DMSO and 12.5 mM HCl, 12.5 mM NaOH, or pH 7.4 phosphate buffer.

Data set [2] in a line: UV-Vis absorption and fluorescence spectroscopy. Conditions: for pH and solvent sensitivity of UV and fluorescence spectra: 10-15 μM, aqueous 10% DMSO with HCl, NaOH or pH 7.4 buffer, various solvents; for Extinction coefficient / λmax abs: 10% DMSO. On the set-up: Brightness: unit not given here. Format: physicochemical.
Text: UV-Vis absorption and fluorescence spectroscopy. UV-Vis spectra were collected with a Cary 50 UV-Vis spectrophotometer at room temperature, using a 1-cm quartz cuvette. Fluorescence spectra were collected on a Cary Eclipse fluorescence spectrophotometer (Agilent Technologies). All absorbance spectra were reference corrected. Fluorescence spectra were corrected for the wavelength dependent response of the R928 photomultiplier tube using a manufacturer generated correction file. Quantum yields are reported as the average of multiple measurements using multiple references. Excitation emission matrices (EEMs) were collected over various spectral regions, using 5-nm step sizes for emission and 10-nm step sizes for excitation. The band pass for excitation and emission was 5 to 10 nm.
as §1

The mark [3] stands for this setting: acidic solution pH 1.9, HCl, excited at 480 nm or 510 nm.
Setting [4] is: conjugate base, basic solution pH 12.1, NaOH.
The mark [5] stands for this setting: conjugate base, pH 12.1, NaOH, excited at 630 nm.
[6] abbreviates: pH 7.4 buffer, excited at 630 nm.
[7] abbreviates: pH 7.4 buffer, seminaphthorhodamines.
Where [8] appears, read: pH 7.4 phosphate buffer, seminaphthorhodamines.
[9] abbreviates: pH 7.4 buffer, excited at 480 nm.
Where [10] appears, read: pH 7.4 buffer, methyl ether derivatives.
Setting [11] is: pH 7.4 phosphate buffer, methyl ether derivatives.
[12] abbreviates: basic solution pH 12.1, NaOH, 15 μM.
Setting [13] is: conjugate acid, acidic solution pH 1.9, HCl, 15 μM.

The structures appear in SMILES notation. Several values for one entry are separate records, joined by “and”; a condition that tells them apart may be missing. Identical values can stand only once.

For the compound `COC(=O)c1ccccc1-c1c2ccc(=N)cc-2oc2c1ccc1cccc(O)c12.Cl` [Compound 3, 1-hydroxy-7-(2-(methoxycarbonyl)phenyl)-10H-benzo[c]xanthen-10-iminium chloride], the pKa in data set [1] (Table 1) is 6.67 +/− 0.11. In addition, the “pH and solvent sensitivity of UV and fluorescence spectra” value (“pH and solvent sensitivity” below) in data set [2] was “exhibit pH as well as solvent sensitivity”. In data set [2] (acidic solution pH 1.9, HCl), the Brightness was found to be 226, the Stokes shift was found to be 62 nm, the Extinction coefficient amounted to 19787 M⁻¹ cm⁻¹ and the λmax abs came out at 542 nm. In data set [2] (setting [3]), this compound displayed a Quantum yield of 1.14% and a λmax em of 604 nm. In addition, in data set [2] (setting [4]), the Extinction coefficient worked out at 15589 M⁻¹ cm⁻¹ and the λmax abs was found to be 621 nm. In addition, in data set [2] (conjugate base, pH 12.1, NaOH), the Brightness was 17 and the Stokes shift amounted to 149 nm. In data set [2] (setting [5]), this compound displayed a Quantum yield of 0.11% and a λmax em of 770 nm.
For `COC(=O)c1ccccc1-c1c2ccc(=N)cc-2oc2c1ccc1cccc(N)c12.Cl` [Compound 9, 1-amino-7-(2-(methoxycarbonyl)phenyl)-10H-benzo[c]xanthen-10-iminium chloride], in data set [2], the “pH and solvent sensitivity” value is on record as “not pH dependent, but were modestly solvent sensitive”. In data set [2] (setting [6]), this compound gave a Quantum yield of 0.18% and a λmax em of 760 nm. For the same compound, in data set [2] (setting [7]), the Brightness was 25 and the Stokes shift is reported as 184 nm. Further, in data set [2] (setting [8]), the Extinction coefficient worked out at 13872 M⁻¹ cm⁻¹ and the λmax abs amounted to 576 nm.
For `COC(=O)c1ccccc1-c1c2ccc(=[N+](C)C)cc-2oc2c1ccc1cccc(O)c12` [Compound 5, N-(1-hydroxy-7-(2-(methoxycarbonyl)phenyl)-10H-benzo[c]xanthen-10-ylidene)-N-N-dimethyl iminium bicarbonate], the “pH and solvent sensitivity” value in data set [2] is listed as “exhibit pH as well as solvent sensitivity”. The same compound displayed an Extinction coefficient in data set [2] (acidic solution pH 1.9, HCl) of 20399 M⁻¹ cm⁻¹. For the same compound, in data set [2] (setting [4]), the Extinction coefficient came to 17252 M⁻¹ cm⁻¹ and the λmax abs came to 632 nm. Also, in data set [2] (conjugate base, pH 12.1, NaOH), the Brightness turned out to be 29 and the Stokes shift is 148 nm. For the same compound, in data set [2] (setting [5]), the Quantum yield is 0.17% and the λmax em was found to be 780 nm.
For the compound `COC(=O)c1ccccc1-c1c2ccc(=[N+](C)C)cc-2oc2c1ccc1cccc(OC)c12.[Cl-]` [Compound 6, N-(1-methoxy-7-(2-(methoxycarbonyl)phenyl)-10H-benzo[c]xanthen-10-ylidene)-N-methylmethanaminium chloride], in data set [2], the “pH and solvent sensitivity” value is “insensitive to variations in pH or solvent”. In addition, in data set [2] (setting [9]), the Quantum yield was determined as 9.32% and the λmax em was found to be 606 nm. Further, in data set [2] (setting [10]), the Brightness was found to be 2094 and the Stokes shift is 38 nm. In data set [2] (setting [11]), the Extinction coefficient was determined as 22470 M⁻¹ cm⁻¹ and the λmax abs was 568 nm.
Take `COC(=O)c1ccccc1-c1c2ccc(=N)cc-2oc2c1ccc1cccc(OC)c12.O=C(O)O` [Compound 4, 1-methoxy-7-(2-(methoxycarbonyl)phenyl)-10H-benzo[c]xanthen-10-iminium bicarbonate]: the “pH and solvent sensitivity” value in data set [2] is reported as “insensitive to variations in pH or solvent”. In addition, the Extinction coefficient in data set [2] (setting [11]) was 21742 M⁻¹ cm⁻¹.
For `COC(=O)c1ccccc1-c1c2ccc(=O)cc-2oc2c1ccc1cccc(N(C)C)c12` [Compound 8, methyl 2-(1-(dimethylamino)-10-oxo-10H-benzo[c]xanthen-7-yl)benzoate], in data set [1] (Table 5), the pKa is given as 4.36 +/− 0.04. Besides, in data set [2], the “pH and solvent sensitivity” value was “not affected by either solvent changes or by solution pH values above 2”. Further, in data set [2] (basic solution pH 12.1, NaOH), the Stokes shift is listed as 21 nm and the λmax em is 530 nm. In data set [2] (setting [12]), this compound displayed an Extinction coefficient of 8834 M⁻¹ cm⁻¹ and a λmax abs of 530 nm. In data set [2] (setting [13]), this compound came in with an Extinction coefficient of 10132 M⁻¹ cm⁻¹ and a λmax abs of 480 nm. For the same compound, in data set [2] (conjugate acid, pH 1.9, HCl), the Stokes shift is 100 nm and the λmax em is 580 nm.
On to `COC(=O)c1ccccc1C1=c2cc3c4c(c2Oc2c1ccc1cccc(O)c21)CCC[N+]=4CCC3` [Compound 11, 15-hydroxy-9-(2-(methoxycarbonyl)phenyl)-1,2,3,5,6,7-hexahydrobenzo[7,8]chromeno[2,3-f]pyrido[3,2,1-ij]quinolin-4-ium chloride], for which, in data set [1] (Table 1), the pKa is on record as 7.84 +/− 0.11. In data set [2], the “pH and solvent sensitivity” value was “exhibit pH as well as solvent sensitivity”. Besides, in data set [2] (acidic solution pH 1.9, HCl), the Brightness was found to be 2314, the Stokes shift was found to be 39 nm, the Extinction coefficient was determined as 15134 M⁻¹ cm⁻¹ and the λmax abs was 585 nm. In data set [2] (setting [3]), this compound displayed a Quantum yield of 15.29% and a λmax em of 624 nm. Besides, in data set [2] (setting [4]), the Extinction coefficient came out at 14454 M⁻¹ cm⁻¹ and the λmax abs amounted to 643 nm. In data set [2] (conjugate base, pH 12.1, NaOH), the Brightness is reported as 43 and the Stokes shift amounted to 127 nm. In data set [2] (setting [5]), the Quantum yield worked out at 0.30% and the λmax em is 770 nm.
Take `COC(=O)c1ccccc1-c1c2ccc(=O)cc-2oc2c1ccc1cccc(N)c12` [Compound 7, methyl 2-(1-amino-10-oxo-10H-benzo[c]xanthen-7-yl)benzoate]: in data set [2], the “pH and solvent sensitivity” value was “not affected by either solvent changes or by solution pH values above 2”. Also, the Extinction coefficient in data set [2] (setting [12]) was 5664 M⁻¹ cm⁻¹ and 8300 M⁻¹ cm⁻¹. Also, in data set [2] (setting [13]), the Extinction coefficient was found to be 3996 M⁻¹ cm⁻¹ and the λmax abs stood at 598 nm. Moreover, in data set [2] (conjugate acid, pH 1.9, HCl), the Stokes shift turned out to be 172 nm and the λmax em was determined as 770 nm.
